Measured values as given in patent publication US20090215778A1, “Alpha-substituted Arylmethyl Piperazine Pyrazolo [1,5-alpha]Pyrimidine Amide Derivatives” (priority 2007, published 2009).

Key:
[1] = molecular target: T1, HIV Env six-helix bundle (6HB) structure (Human immunodeficiency virus type 1 group M subtype B, UniProt P04579); assay: Six-helix bundle (6HB) assay; format: cell-based, HIV-1 (strain RF)
T1 construct: H9 cells chronically infected with HIV-1 (H9/HIV-1RF); endogenous in cells; host or cells: H9 cells chronically infected with HIV-1 strain RF (Env is made from the virus in the infected cells, not by transfection)
Procedure: 3×10^6H9 cells were incubated with 1 mL of HIV-1 (strain RF) supplemented with 40 μg/mL of DEAE-dextran. Virus and cells were incubated together at 37° C. for 2-4 hours with sporadic shaking to resuspend cells. 10 mL of media (RPMI 1640 containing 10% fetal bovine serum and supplemented with 50 μg/mL gentamicin) was then added and the virus-cell coculture was incubated at 37° C. in a humidified 5% CO2 incubator. 3 days post-infection and every 2-3 days thereafter, the infected H9/HIV-1RF cells were centrifuged, the supernatant was removed, and the cells were resuspended at a density of 0.3×10^6 cells/mL in media (RPMI 1640 containing 10% fetal bovine serum and supplemented with 50 μg/mL gentamicin). Chronically infected H9/HIV-1RF cells were used in experiments starting 12-15 days after infection and up to 40 days post-infection.
This assay determines the effect of compounds on conformational changes in HIV envelope glycoprotein (Env) that are required in order for Env to mediate the fusion of the viral and cellular membranes during virus entry and infection. Specifically, this assay measures the effect of compounds on the formation of the HIV Env six-helix bundle (6HB) structure.
H9 cells chronically infected with HIV-1 (H9/HIV-1RF) were resuspended in Stain/Wash Buffer (1% bovine serum albumin, 0.1% sodium azide in phosphate-buffered saline) and aliquoted at 2.5×10^5 cells per well into 96-well V-bottom plates containing various concentrations of test compounds. Cells and compounds were incubated for 30 minutes at 37° C. Recombinant soluble CD4 (sCD4) was then added to a final concentration of 1 μg/mL. Negative control wells contained no sCD4 and no test compound. Positive control wells contained sCD4 but no test compound. The plate was incubated for 1 hour at 37° C. to allow the sCD4 to bind to HIV Env and induce conformational changes in the Env protein. Antibody that is specific for the HIV Env six-helix bundle conformation was then added (1 μL polyclonal rabbit serum per well), and the plate was incubated for an additional 1 hour at 37° C. to permit antibody binding. The cells were then washed once with Stain/Wash Buffer to remove compound and excess antibody. The cells were resuspended in Stain/Wash Buffer containing PE-labeled anti-rabbit secondary antibody (KPL) at 0.25 μg per well. The cells were incubated for 45 min at 4° C. to permit secondary antibody binding. Fluorescence was detected using a BD FACSArray™ bioanalyzer. Compounds that inhibited Env conformational changes were identified as those that decreased primary antibody binding to the six-helix bundle epitope resulting in a decrease in fluorescence signal.

HIV-1, NL4-3 strain = assay: Virus infection assay (virus entry and single-cycle infection); format: cell-based; settings: Human immunodeficiency virus 1, NL43, TZM-b1, read-out: Nl4
Procedure: TZM-b1 indicator cells were propagated in Dulbecco's Modified Eagle's Medium (DMEM) containing 10% fetal bovine serum (FBS, heat-inactivated) and supplemented with gentamicin (50 ug/mL).
This assay determines the effects of compounds on virus entry and single-cycle infection of cells. In this assay, virus (HIV-1, NL4-3 strain) is added to indicator cells expressing the CD4 receptor and both the CXCR4 and CCR5 co-receptor. The cells contain both a lac Z and a luciferase reporter gene under control of the viral LTR transcription promoter. The cells and virus are incubated together in the presence of various concentrations of test compounds. Successful infection of the cells by the virus permits activation of the reporter gene by the viral Tat transcription factor. The resulting beta-galactosidase or luciferase activity is quantitated using a chemiluminescent substrate and a luminescent plate reader.
Specifically, one day prior to infection, 1.5×10^4 TZM-b1 indicator cells were added to each well of a 96-well microtiter plate. On the day of the experiment, virus (MOI 0.01) in 50 μL of medium (Dulbecco's Modified Eagle's Medium) supplemented with DEAE-dextran at a final concentration of 80 μg/mL was added to cells along with various concentrations of test compound in 50 μL of Dulbecco's Modified Eagle's Medium. Control wells had virus alone. Following a 4 hr incubation at 37° C., complete media [DMEM supplemented with 10% fetal bovine serum (FBS, heat-inactivated) and gentamicin (50 ug/mL)] was added. One day post-infection the level of virus infection was quantitated by detection of β-galactosidase expression using the Gal-Screen system (Applied Biosystems).

T1 sequence (P04579 32-519): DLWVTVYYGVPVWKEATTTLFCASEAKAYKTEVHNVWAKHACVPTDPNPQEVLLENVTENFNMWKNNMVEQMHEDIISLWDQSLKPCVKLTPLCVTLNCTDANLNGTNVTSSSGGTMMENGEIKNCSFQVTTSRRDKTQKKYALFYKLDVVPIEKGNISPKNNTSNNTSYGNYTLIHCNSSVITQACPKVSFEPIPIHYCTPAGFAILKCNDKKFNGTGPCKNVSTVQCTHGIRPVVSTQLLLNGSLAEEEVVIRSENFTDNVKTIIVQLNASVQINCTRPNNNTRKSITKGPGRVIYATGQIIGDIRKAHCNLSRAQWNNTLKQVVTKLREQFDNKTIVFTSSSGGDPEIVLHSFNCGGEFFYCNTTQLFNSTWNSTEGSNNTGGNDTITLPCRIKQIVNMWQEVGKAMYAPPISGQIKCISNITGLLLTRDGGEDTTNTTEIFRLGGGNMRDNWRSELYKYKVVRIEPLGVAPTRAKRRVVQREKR
T1 sequence (P04579 520-865): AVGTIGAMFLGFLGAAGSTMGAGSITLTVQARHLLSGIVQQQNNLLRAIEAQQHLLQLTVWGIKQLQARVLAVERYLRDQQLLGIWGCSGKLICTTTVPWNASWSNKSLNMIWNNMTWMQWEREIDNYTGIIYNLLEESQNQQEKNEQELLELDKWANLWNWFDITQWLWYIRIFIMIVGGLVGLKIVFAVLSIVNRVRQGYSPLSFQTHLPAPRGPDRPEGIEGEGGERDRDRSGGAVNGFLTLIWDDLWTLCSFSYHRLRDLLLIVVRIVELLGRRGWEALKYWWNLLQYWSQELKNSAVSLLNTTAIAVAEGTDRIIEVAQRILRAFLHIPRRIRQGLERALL

Row | Compound | IC50 [1] [nM] | IC50 (HIV-1, NL4-3 strain) [nM]
1 | COc1ccc(-c2nc3c(C(=O)N4CCN([C@@H](c5ccccc5)C(F)(F)F)C[C@H]4C)cnn3c(C(F)(F)F)c2C)cc1 [methanone, [5-(4-methoxyphenyl)-6-methyl-7-(trifluoromethyl)pyrazolo[1,5-α]pyrimidin-3-yl][(2R)-2-methyl-4-[(1S)-2,2,2-trifluoro-1-phenylethyl]-1-piperazinyl]-] | < 1000 | < 1000
2 | COc1ccc(-c2nc3c(C(=O)N4CCN([C@@H](C)c5ccc(F)cc5)C[C@H]4C)cnn3c(C(F)(F)F)c2C)cc1 [methanone, [(2R)-4-[(1S)-1-(4-fluorophenyl)ethyl]-2-methyl-1-piperazinyl][5-(4-methoxyphenyl)-6-methyl-7-(trifluoromethyl)pyrazolo[1,5-α]pyrimidin-3-yl]-] | < 1000 | < 1000
3 | CNCC(c1ccccc1)N1CCN(C(=O)c2cnn3c(C(F)(F)F)c(C)c(-c4ccc(OC)cc4)nc23)[C@H](C)C1 (stereo partly drawn) [methanone, [5-(4-methoxyphenyl)-6-methyl-7-(trifluoromethyl)pyrazolo[1,5-α]pyrimidin-3-yl][(2R)-2-methyl-4-[2-(methylamino)-1-phenylethyl]-1-piperazinyl]-] | < 1000 | < 1000
4 | COc1ccc(-c2nc3c(C(=O)N4CCN(C(C#N)c5ccccc5)C[C@H]4C)cnn3c(C(F)(F)F)c2C)cc1 (stereo partly drawn) [1-piperazineacetonitrile, 4-[[5-(4-methoxyphenyl)-6-methyl-7-(trifluoromethyl)pyrazolo[1,5-α]pyrimidin-3-yl]carbonyl]-3-methyl-α-phenyl-, (3R)-] | < 1000 | < 1000
5 | COc1ccc(-c2nc3c(C(=O)N4CCN(C(CO)c5ccccc5OC)C[C@H]4C)cnn3c(C(F)(F)F)c2C)cc1 (stereo partly drawn) [methanone, [(2R)-4-[2-hydroxy-1-(2-methoxyphenyl)ethyl]-2-methyl-1-piperazinyl][5-(4-methoxyphenyl)-6-methyl-7-(trifluoromethyl)pyrazolo[1,5-α]pyrimidin-3-yl]-] | < 1000 | < 1000
6 | COc1ccc(-c2nc3c(C(=O)N4CCN([C@@H](CO)c5ccccc5)C[C@H]4C)cnn3c(C(F)(F)F)c2F)cc1 [methanone, [6-fluoro-5-(4-methoxyphenyl)-7-(trifluoromethyl)pyrazolo[1,5-α]pyrimidin-3-yl][(2R)-4-[(1R)-2-hydroxy-1-phenylethyl]-2-methyl-1-piperazinyl]-] | < 1000 | < 1000
7 | COc1ccc(-c2nc3c(C(=O)N4CCN(C(CO)c5ccccc5)CC4)cnn3c(C(F)(F)F)c2C)cc1 (stereo not drawn) [methanone, [4-(2-hydroxy-1-phenylethyl)-1-piperazinyl][5-(4-methoxyphenyl)-6-methyl-7-(trifluoromethyl)pyrazolo[1,5-α]pyrimidin-3-yl]-] | < 1000 | < 1000
8 | COC(=O)C(c1ccccc1)N1CCN(C(=O)c2cnn3c(C(F)(F)F)c(C)c(-c4ccc(OC)cc4)nc23)[C@H](C)C1 (stereo partly drawn) [1-piperazineacetic acid, 4-[[5-(4-methoxyphenyl)-6-methyl-7-(trifluoromethyl)pyrazolo[1,5-α]pyrimidin-3-yl]carbonyl]-3-methyl-α-phenyl-, methyl ester, (3R)-] | < 1000 | < 1000
9 | COc1ccc(-c2nc3c(C(=O)N4CCN([C@@H](CO)c5ccc(Cl)s5)C[C@H]4C)cnn3c(C(F)(F)F)c2C)cc1 [methanone, [(2R)-4-[(1S)-1-(5-chloro-2-thienyl)-2-hydroxyethyl]-2-methyl-1-piperazinyl][5-(4-methoxyphenyl)-6-methyl-7-(trifluoromethyl)pyrazolo[1,5-α]pyrimidin-3-yl]-] | < 1000 | < 1000
10 | COc1ccc(-c2nc3c(C(=O)N4CCN(C(CO)c5ccccc5Br)C[C@H]4C)cnn3c(C(F)(F)F)c2C)cc1 (stereo partly drawn) [methanone, [(2R)-4-[1-(2-bromophenyl)-2-hydroxyethyl]-2-methyl-1-piperazinyl][5-(4-methoxyphenyl)-6-methyl-7-(trifluoromethyl)pyrazolo[1,5-α]pyrimidin-3-yl]-] | < 1000 | < 1000
11 | COc1ccc(-c2nc3c(C(=O)N4CCN([C@H](CO)c5cc(C)cs5)C[C@H]4C)cnn3c(C(F)(F)F)c2C)cc1 [methanone, [(2R)-4-[(1R)-2-hydroxy-1-(4-methyl-2-thienyl)ethyl]-2-methyl-1-piperazinyl][5-(4-methoxyphenyl)-6-methyl-7-(trifluoromethyl)pyrazolo[1,5-α]pyrimidin-3-yl]-] | < 1000 | < 1000
12 | COc1ccc(-c2nc3c(C(=O)N4CCN(C(CO)c5cccnc5)C[C@H]4C)cnn3c(C(F)(F)F)c2C)cc1 (stereo partly drawn) [methanone, [(2R)-4-[2-hydroxy-1-(3-pyridinyl)ethyl]-2-methyl-1-piperazinyl][5-(4-methoxyphenyl)-6-methyl-7-(trifluoromethyl)pyrazolo[1,5-α]pyrimidin-3-yl]-] | < 1000 | > 10100
13 | COc1ccc(-c2nc3c(C(=O)N4CCN([C@H](C)c5ccc(F)c(F)c5)C[C@H]4C)cnn3c(C(F)(F)F)c2C)cc1 [methanone, [(2R)-4-[(1R)-1-(3,4-difluorophenyl)ethyl]-2-methyl-1-piperazinyl][5-(4-methoxyphenyl)-6-methyl-7-(trifluoromethyl)pyrazolo[1,5-α]pyrimidin-3-yl]-] | < 1000 | < 1000
14 | COc1ccc(-c2nc3c(C(=O)N4CCN(C(CO)c5cccc(N6CCCC6)c5)C[C@H]4C)cnn3c(C(F)(F)F)c2C)cc1 (stereo partly drawn) [methanone, [(2R)-4-[2-hydroxy-1-[3-(1-pyrrolidinyl)phenyl]ethyl]-2-methyl-1-piperazinyl][5-(4-methoxyphenyl)-6-methyl-7-(trifluoromethyl)pyrazolo[1,5-α]pyrimidin-3-yl]-] | < 1000 | < 1000
15 | COc1ccc(-c2nc3c(C(=O)N4CCN(C(CNS(C)(=O)=O)c5ccccc5)C[C@H]4C)cnn3c(C(F)(F)F)c2C)cc1 (stereo partly drawn) [methanesulfonamide, N-[2-[(3R)-4-[[5-(4-methoxyphenyl)-6-methyl-7-(trifluoromethyl)pyrazolo[1,5-α]pyrimidin-3-yl]carbonyl]-3-methyl-1-piperazinyl]-2-phenylethyl]-, 2,2,2-trifluoroacetate] | < 1000 | < 1000
16 | COc1ccc(-c2nc3c(C(=O)N4CCN(C(CO)c5ccc(C#N)cc5)C[C@H]4C)cnn3c(C(F)(F)F)c2C)cc1 (stereo partly drawn) | 1100 to 10000 | 1100 to 10000
17 | COc1ccc(-c2nc3c(C(=O)N4CCN([C@@H](C)c5cccc(NC(=O)OC(C)(C)C)c5)C[C@H]4C)cnn3c(C(F)(F)F)c2C)cc1 [carbamic acid, N-[3-[(1S)-1-[(3R)-4-[[5-(4-methoxyphenyl)-6-methyl-7-(trifluoromethyl)pyrazolo[1,5-α]pyrimidin-3-yl]carbonyl]-3-methyl-1-piperazinyl]ethyl]phenyl]-, 1,1-dimethylethyl ester] | 1100 to 10000 | > 10100
18 | COc1ccc(-c2nc3c(C(=O)N4CCN(C(CO)c5cc(F)cc(OC)c5)C[C@H]4C)cnn3c(C(F)(F)F)c2C)cc1 (stereo partly drawn) [methanone, [(2R)-4-[1-(3-fluoro-5-methoxyphenyl)-2-hydroxyethyl]-2-methyl-1-piperazinyl][5-(4-methoxyphenyl)-6-methyl-7-(trifluoromethyl)pyrazolo[1,5-α]pyrimidin-3-yl]-] | < 1000 | < 1000
